US9040547B2, “Pyrrolopyrimidine and purine derivatives” (PFIZER INC., priority 2011, dated 2015)

Legend:
Type in all cases: cell-based
EGFR E746-A750 deletion = EGFR E746-A750 deletion (Homo sapiens, UniProt P00533, DEL746-750); assay: pEGFR Y1068 ELISA assay, NIH3T3/EGFR_E746-A750 deletion cells; settings: 3T3 Del cells, 2 hrs compound treatment; read-out: ELISA7E 3T3 Del IC50;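 note: sandwich ELISA on cell lysates detecting phospho-EGFR at Tyr1068, compounds run as 11-point threefold dilution series in duplicate, IC50 from inhibition of this phosphorylation signal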
NIH3T3/EGFR L858R+T790M = assay: Cell proliferation assay (CellTiter-Glo), NIH3T3/EGFR L858R+T790M; settings: Mus musculus, NIH3T3, 120 h, 3T3 cell line, three to five days of compound treatment, read-out: 3T3 L858R_T790M IC50
[1] = test system: NIH3T3/EGFR_E746-A750_deletion+T790M; assay: Cell proliferation assay (CellTiter-Glo), NIH3T3/EGFR_E746-A750_deletion+T790M; settings: Mus musculus, NIH3T3, 120 h, 3T3 cell line, three to five days of compound treatment, read-out: 3T3 del_T790M IC50
Protocol: (§1) Cell proliferation was measured using the CellTiter-Glo® Luminescent Cell Viability Assay. The assay involves the addition of a single reagent (CellTiter-Glo® Reagent) directly to cells cultured in serum-supplemented medium. The assay uses this one-step addition to induce cell lysis and generate a luminescent signal proportional to the amount of ATP present which is directly proportional to the number of metabolically active cells present in culture. The following cell lines were evaluated in this assay: NIH3T3/EGFR_L858R, NIH3T3/EGFR_E746-A750_deletion, NIH3T3/EGFR L858R+T790M, NIH3T3/EGFR_E746-A750_deletion+T790M, PC-9, PC9-DRH, NCI-H1975, and NCI-H3255. NIH/3T3 parental cells, NCI-H1975, and NCI-H3255 were purchased from the American Type Culture Collection (Manassas, Va.), and PC-9 cells were obtained from Japan. All cells were cultured according to recommendations. NIH/3T3 cells were grown in DMEM (Invitrogen, Carlsbad, Calif.) supplemented with 10% newborn calf serum (Invitrogen), and NIH3T3/EGFR mutant cells were grown in complete media with 5 μg/mL puromycin (Invitrogen). PC-9, NCI-H1975, and NCI-H3255 were grown in RPMI (Invitrogen, Carlsbad, Calif.) supplemented with 10% FBS (Sigma, St Louis, Mo.), and PC9-DRH cells were grown in complete media with 2 uM PF-00299804. Plasmids (pLPCX) with various EGFR constructs were made by GenScript (Piscataway, N.J.), and stable pools of NIH/3T3 cells expressing these constructs were made at Pfizer La Jolla. PC9-DRH cells were generated at Pfizer La Jolla by exposing cells to increasing concentrations of PF-00299804. Cells were plated in complete culture media (3000-5000 cells/well, 50 μl/well) on the bottom of white clear-bottom tissue culture treated microtiter plates (#3610, Corning Inc, Corning, N.Y.) and allowed to adhere overnight at 37° C., 5% CO2. The following day, compound dilution plates were prepared in 96 well clear V-bottom 0.5 mL polypropylene block plates (#3956, Corning, Inc). All cell lines were not evaluated for each compound. Each compound evaluated was prepared as a DMSO stock solution (10 mM). Compounds were tested in duplicate on each plate, with an 11-point serial dilution curve (1:3 dilution). Compound treatment (50 μl) was added from the compound dilution plate to the cell plate. The highest compound concentration was 1 or 10 μM (final), with a 0.3% final DMSO (#D-5879, Sigma, St Louis, Mo.) concentration. Plates were then incubated at 37° C., 5% CO2. After three to five days of compound treatment, CellTiter-Glo® Reagent (#G7573, Promega, Madison, Wis.) was prepared in one of two ways. If thawing a frozen aliquot of CellTiter-Glo® Reagent, the aliquot was thawed and equilibrated to room temperature prior to use while keeping it protected from light. Alternatively, new bottles of CellTiter-Glo® Buffer and CellTiter-Glo® Substrate were thawed and equilibrated to room temperature prior to use. CellTiter-Glo® Buffer (100 mL) was transferred into the amber bottle containing CellTiter-Glo® Substrate to reconstitute the lyophilized enzyme/substrate mixture, forming the CellTiter-Glo® Reagent. The reconstituted reagent was mixed by gently inverting the contents to obtain a homogeneous solution, and went into solution easily in less than one minute. Any unused reconstituted CellTiter-Glo® Reagent was immediately aliquoted and frozen at −20° C., protected from light. Cell plates were equilibrated at room temperature for approximately 30 minutes. An equivolume amount of CellTiter-Glo® Reagent (100 μL) was added to each well. Plates were mixed for two minutes on an orbital shaker to induce cell lysis, and then allowed to incubate at room temperature for 10 minutes to stabilize the luminescent signal. Luminescence was recorded using the PerkinElmer EnVision Excite Multilabel Reader used for endpoint reading for Luminescence detection (Waltham, Mass.). Data were analyzed using a four-parameter fit in Microsoft Excel. […]

[2] = target: T1, EGFR wildtype, endogenous (Homo sapiens, UniProt P00533); assay: pEGFR Y1068 ELISA assay, A549 cells; settings: full serum media, stimulated 10 min with EGF (40 ng/mL), read-out: pEGFRY1068 ELISAA549 IC50;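 note: sandwich ELISA of phospho-EGFR Tyr1068 in cell lysates, cells exposed to compound for 2 h before EGF stimulation, 11-point threefold dilution series run in duplicate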
T1 construct: A549 (EGFR wildtype, endogenous); host or cells: A549

EGFR L858R = EGFR L858R (Homo sapiens, UniProt P00533, L858R); assay: pEGFR Y1068 ELISA assay, NIH3T3/EGFR_L858R cells; settings: 3T3 cell line, 2 hrs compound treatment; read-out: pEGFRY1068 ELISA3T3 L858R IC50;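 note: sandwich ELISA of phospho-EGFR Tyr1068 in lysates of stably transfected NIH/3T3 pools after 2 h compound exposure at 37 °C, 11-point threefold dilution series run in duplicate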
EGFR L858R+T790M = EGFR L858R+T790M (Homo sapiens, UniProt P00533, L858R/T790M); assay: pEGFR Y1068 ELISA assay, NIH3T3/EGFR_L858R+T790M cells; settings: 3T3 cell line, 2 hrs compound treatment; read-out: pEGFRY1068 ELISA3T3T790M—L858R IC50;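 note: sandwich ELISA of EGFR phosphorylated at Tyr1068 in lysates of stably transfected NIH/3T3 cells, 11-point threefold dilution series run in duplicate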
NIH3T3/EGFR_L858R = assay: Cell proliferation assay (CellTiter-Glo), NIH3T3/EGFR_L858R; settings: Mus musculus, NIH3T3, 120 h, 3T3 cell line, three to five days of compound treatment, read-out: 3T3 L858R IC50
Protocol: as §1

[3] = test system: NIH3T3/EGFR_E746-A750_deletion; assay: Cell proliferation assay (CellTiter-Glo), NIH3T3/EGFR_E746-A750_deletion; settings: Mus musculus, NIH3T3, 120 h, 3T3 cell line, three to five days of compound treatment, read-out: 3T3 del IC50
Protocol: as §1

EGFR Del (PC9) = target: T2, EGFR Del (PC9) (Homo sapiens, UniProt P00533, DEL746-750); assay: EGFR ELISA, PC9 Del cells; settings: read-out: EGFR_ELISA9E PC9 Del IC50;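 note: cellular EGFR autophosphorylation at Tyr1068 quantified by sandwich ELISA of cell lysates after 2 h compound exposure at 37 °C, 11-point threefold dilution series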
T2 construct: endogenous in cells; host or cells: PC-9

[4] = target: T3, EGFR L858R+T790M, endogenous (Homo sapiens, UniProt P00533, L858R/T790M); assay: pEGFR Y1068 ELISA assay, NCI-H1975 cells; settings: value marked (H1975): NCI-H1975 cells, 2 hrs compound treatment; read-out: pEGFRY1068 ELISA3T3T790M—L858R IC50 (nM), (H1975);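 note: sandwich ELISA of endogenous phospho-EGFR (Tyr1068) in lysates of treated cells, 11-point 1:3 serial dilution tested in duplicate per plate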
T3 construct: NCI-H1975 (EGFR L858R+T790M, endogenous); host or cells: NCI-H1975

Sequence of EGFR L858R (P00533 25-1210 L858R): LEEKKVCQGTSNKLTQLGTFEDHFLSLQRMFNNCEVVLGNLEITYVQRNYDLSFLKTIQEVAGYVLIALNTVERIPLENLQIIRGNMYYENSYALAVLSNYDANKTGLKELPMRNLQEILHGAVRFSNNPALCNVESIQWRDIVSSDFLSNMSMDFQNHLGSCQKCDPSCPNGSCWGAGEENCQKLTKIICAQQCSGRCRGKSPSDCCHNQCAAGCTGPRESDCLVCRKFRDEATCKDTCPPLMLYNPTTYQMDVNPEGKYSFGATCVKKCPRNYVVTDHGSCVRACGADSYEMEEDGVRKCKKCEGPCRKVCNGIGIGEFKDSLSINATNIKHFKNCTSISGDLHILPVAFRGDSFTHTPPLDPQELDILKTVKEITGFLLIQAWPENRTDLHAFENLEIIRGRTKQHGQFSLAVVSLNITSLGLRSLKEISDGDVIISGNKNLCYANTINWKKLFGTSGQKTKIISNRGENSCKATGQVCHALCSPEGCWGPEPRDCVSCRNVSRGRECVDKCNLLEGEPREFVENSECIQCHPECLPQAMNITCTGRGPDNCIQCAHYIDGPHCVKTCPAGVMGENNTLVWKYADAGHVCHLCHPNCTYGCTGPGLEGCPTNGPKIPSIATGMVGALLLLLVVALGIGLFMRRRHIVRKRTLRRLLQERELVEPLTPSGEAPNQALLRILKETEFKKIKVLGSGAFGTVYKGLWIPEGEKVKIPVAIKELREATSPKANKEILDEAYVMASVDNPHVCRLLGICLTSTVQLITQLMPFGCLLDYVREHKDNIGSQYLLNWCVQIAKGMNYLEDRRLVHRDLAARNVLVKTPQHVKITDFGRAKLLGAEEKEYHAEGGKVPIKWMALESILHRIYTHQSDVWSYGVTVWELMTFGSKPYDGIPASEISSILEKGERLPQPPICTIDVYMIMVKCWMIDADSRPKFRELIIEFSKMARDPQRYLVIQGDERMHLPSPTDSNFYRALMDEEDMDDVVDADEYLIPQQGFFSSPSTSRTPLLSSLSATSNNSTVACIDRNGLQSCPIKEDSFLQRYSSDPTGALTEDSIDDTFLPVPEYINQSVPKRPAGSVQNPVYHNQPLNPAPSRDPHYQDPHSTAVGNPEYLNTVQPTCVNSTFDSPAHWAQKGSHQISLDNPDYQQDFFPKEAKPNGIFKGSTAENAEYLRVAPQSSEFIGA
Sequence of EGFR L858R+T790M (P00533 25-1210 T790M/L858R): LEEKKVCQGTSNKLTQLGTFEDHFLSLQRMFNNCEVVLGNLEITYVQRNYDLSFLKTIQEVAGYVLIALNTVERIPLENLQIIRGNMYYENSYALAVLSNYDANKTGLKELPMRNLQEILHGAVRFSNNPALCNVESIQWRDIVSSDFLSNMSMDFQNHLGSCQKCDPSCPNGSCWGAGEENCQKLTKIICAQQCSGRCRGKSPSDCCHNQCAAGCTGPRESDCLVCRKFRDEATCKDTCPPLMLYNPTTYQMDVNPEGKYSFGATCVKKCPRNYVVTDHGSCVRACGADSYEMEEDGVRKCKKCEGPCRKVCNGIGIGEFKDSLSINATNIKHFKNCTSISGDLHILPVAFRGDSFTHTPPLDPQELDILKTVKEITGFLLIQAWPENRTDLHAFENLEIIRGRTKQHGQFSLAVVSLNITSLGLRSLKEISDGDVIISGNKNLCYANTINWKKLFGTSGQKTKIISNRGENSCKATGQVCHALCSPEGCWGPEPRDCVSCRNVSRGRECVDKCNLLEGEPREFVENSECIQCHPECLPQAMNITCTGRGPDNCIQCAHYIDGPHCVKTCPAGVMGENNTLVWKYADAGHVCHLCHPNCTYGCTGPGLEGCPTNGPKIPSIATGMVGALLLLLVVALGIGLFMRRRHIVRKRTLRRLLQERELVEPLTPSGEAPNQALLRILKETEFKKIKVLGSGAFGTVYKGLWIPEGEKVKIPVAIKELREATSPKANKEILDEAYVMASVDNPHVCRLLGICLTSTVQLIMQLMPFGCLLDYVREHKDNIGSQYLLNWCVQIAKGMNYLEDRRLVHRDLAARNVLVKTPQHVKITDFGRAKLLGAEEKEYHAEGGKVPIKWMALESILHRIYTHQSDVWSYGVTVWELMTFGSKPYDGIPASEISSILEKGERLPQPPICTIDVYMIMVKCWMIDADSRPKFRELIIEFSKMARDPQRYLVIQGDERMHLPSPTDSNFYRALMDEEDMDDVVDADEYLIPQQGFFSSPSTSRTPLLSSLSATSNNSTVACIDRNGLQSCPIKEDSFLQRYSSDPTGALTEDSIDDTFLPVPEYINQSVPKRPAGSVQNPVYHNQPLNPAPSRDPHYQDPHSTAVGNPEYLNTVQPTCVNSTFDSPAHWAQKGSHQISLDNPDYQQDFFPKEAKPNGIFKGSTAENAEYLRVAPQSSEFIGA
T2 sequence (P00533 with tags, fused parts or gaps DEL746-750): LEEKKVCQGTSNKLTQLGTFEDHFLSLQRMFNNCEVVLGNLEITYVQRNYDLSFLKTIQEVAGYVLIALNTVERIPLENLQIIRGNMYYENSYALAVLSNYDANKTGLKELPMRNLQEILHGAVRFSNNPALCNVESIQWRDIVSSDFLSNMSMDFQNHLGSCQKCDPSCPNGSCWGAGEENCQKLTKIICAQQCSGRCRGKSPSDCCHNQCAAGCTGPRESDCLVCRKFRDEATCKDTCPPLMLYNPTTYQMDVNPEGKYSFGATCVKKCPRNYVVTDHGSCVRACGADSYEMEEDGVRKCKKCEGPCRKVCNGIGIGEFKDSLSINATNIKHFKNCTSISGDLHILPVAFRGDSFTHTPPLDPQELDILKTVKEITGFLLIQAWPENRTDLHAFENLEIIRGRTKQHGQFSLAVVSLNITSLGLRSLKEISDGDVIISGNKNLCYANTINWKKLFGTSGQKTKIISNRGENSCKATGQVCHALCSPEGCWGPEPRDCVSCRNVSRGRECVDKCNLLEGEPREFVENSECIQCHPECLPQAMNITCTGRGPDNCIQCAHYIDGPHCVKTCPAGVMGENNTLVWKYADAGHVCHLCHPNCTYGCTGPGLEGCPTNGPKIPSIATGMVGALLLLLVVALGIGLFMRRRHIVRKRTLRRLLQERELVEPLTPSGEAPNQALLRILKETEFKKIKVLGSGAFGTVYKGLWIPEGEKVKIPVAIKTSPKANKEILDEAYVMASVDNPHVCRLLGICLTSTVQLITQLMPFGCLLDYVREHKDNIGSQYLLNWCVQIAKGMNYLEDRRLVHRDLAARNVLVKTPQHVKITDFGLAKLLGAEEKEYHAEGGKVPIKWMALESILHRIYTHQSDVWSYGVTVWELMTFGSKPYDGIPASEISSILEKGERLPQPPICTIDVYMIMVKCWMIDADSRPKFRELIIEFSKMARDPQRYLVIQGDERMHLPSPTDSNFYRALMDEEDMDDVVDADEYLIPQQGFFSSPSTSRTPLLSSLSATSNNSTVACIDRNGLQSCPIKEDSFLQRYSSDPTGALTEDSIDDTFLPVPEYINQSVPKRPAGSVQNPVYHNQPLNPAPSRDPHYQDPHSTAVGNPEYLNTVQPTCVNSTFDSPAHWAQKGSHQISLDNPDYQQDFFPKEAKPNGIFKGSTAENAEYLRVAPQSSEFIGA
Sequence of EGFR E746-A750 deletion (P00533 with tags, fused parts or gaps DEL746-750): as above

Row | Structure (SMILES) | IC50 (EGFR E746-A750 deletion) | IC50 (NIH3T3/EGFR L858R+T790M) | IC50 [1] | IC50 [2] | IC50 (EGFR L858R) | IC50 (EGFR L858R+T790M) | IC50 (NIH3T3/EGFR_L858R) | IC50 [3] | IC50 (EGFR Del (PC9)) | IC50 [4]
1 | C=CC(=O)N[C@H]1C[C@@H](Oc2nc(Nc3cnn(C)c3)nc3[nH]cc(C#N)c23)C1 (single isomer, unassigned) [Example 5, N-[cis-3-({5-cyano-2-[(1-methyl-1H-pyrazol-4-yl)amino]-7H-pyrrolo[2,3-d]pyrimidin-4-yl}oxy)cyclobutyl]prop-2-enamide] | 1320 nM | 100 to 1000 nM | 100 to 1000 nM | > 10000 nM | 1810 nM | 221 nM | > 1000 nM | 100 to 1000 nM | 982 nM | –
2 | C=CC(=O)Nc1cccc(Oc2nc(Nc3cc[nH]n3)nc3[nH]ccc23)c1 [Example 27] | 56 nM | – | – | > 10000 nM | – | – | – | – | – | 146 nM
3 | C=CC(=O)Nc1cccc(Oc2nc(Nc3cnn(C)n3)nc3[nH]ccc23)c1 [Example 40] | 44 nM | 10 to 100 nM | < 10 nM | > 6380 nM | 99 nM | 20 nM | > 1000 nM | 10 to 100 nM | – | –
4 | C=CC(=O)Nc1cccc(Oc2nc(Nc3cnn(C)c3)nc3[nH]cc(C#N)c23)c1 [Example 57] | 25 nM | 10 to 100 nM | 10 to 100 nM | > 10000 nM | 105 nM | 67 nM | > 1000 nM | < 10 nM | 44 nM | –
5 | C=CC(=O)N(C)[C@H]1C[C@H](Oc2nc(Nc3cn(C)nc3C)nc3[nH]cc(Cl)c23)C1 [Example 62] | 237 nM | 10 to 100 nM | < 10 nM | > 10000 nM | 218 nM | 10 nM | 10 to 100 nM | 10 to 100 nM | 558 nM | –
6 | C=CC(=O)N[C@H]1C[C@H](Oc2nc(Nc3cnn(C)c3)nc3[nH]cc(Cl)c23)C1 [Example 63] | 1220 nM | > 1000 nM | 100 to 1000 nM | > 10000 nM | 2010 nM | 67 nM | > 1000 nM | > 1000 nM | – | –
7 | C=CC(=O)N1CC[C@@H](Oc2nc(Nc3cnn(C)c3)nc3[nH]cc(Cl)c23)C1 [Example 65] | 1170 nM | 100 to 1000 nM | 10 to 100 nM | > 10000 nM | 510 nM | 44 nM | 100 to 1000 nM | 100 to 1000 nM | – | –
8 | C=CC(=O)N1C[C@H](COc2nc(Nc3cn(C)nc3CC)nc3[nH]cc(F)c23)[C@@H](OC)C1 [Example 68] | 1060 nM | 100 to 1000 nM | 10 to 100 nM | > 10000 nM | 208 nM | 42 nM | 100 to 1000 nM | 100 to 1000 nM | – | –
9 | C=CC(=O)N1C[C@H](COc2nc(Nc3cn(C)nc3OC)nc3[nH]cc(Cl)c23)[C@@H](OC)C1 [Example 70] | 269 nM | 100 to 1000 nM | 10 to 100 nM | > 10000 nM | 113 nM | 12 nM | 100 to 1000 nM | 100 to 1000 nM | 592 nM | –
10 | C=CC(=O)N1C[C@@H]2CN(c3nc(Nc4cnn(C)c4)nc4[nH]cc(Cl)c34)C[C@@H]2C1 [Example 71] | 356 nM | 100 to 1000 nM | 10 to 100 nM | > 5460 nM | 143 nM | 20 nM | 100 to 1000 nM | 10 to 100 nM | – | –
11 | C=CC(=O)Nc1cc(F)cc(Oc2nc(Nc3cnn([C@@H]4CCN(C)C4)c3)nc3[nH]ccc23)c1 [Example 107] | 12 nM | 10 to 100 nM | < 10 nM | 2170 nM | 26 nM | 3 nM | 10 to 100 nM | < 10 nM | – | –
12 | C=CC(=O)N(C)[C@H]1C[C@H](Oc2nc(Nc3cnn(C)c3)nc3[nH]cc(Cl)c23)C1 [Example 108] | 81 nM | 10 to 100 nM | < 10 nM | > 10000 nM | 164 nM | 7 nM | 100 to 1000 nM | 10 to 100 nM | 352 nM | –
